# Measurements published in patent US9801809B2, “Compositions including a botanical extract and methods of using the same in skin whitening and skin lightening applications” (Access Business Group International LLC, priority 2014, dated 2017).
# System: Melan-a cells
# Test: Melanin production in Melan-a cells
# Format: cell-based
# Settings: extract 25 μg and 12.5 μg, treated twice, compared to 100% untreated control, FIG. 3
# Method: The chrysanthemum extract in an amount of 25 μg and 12.5 μg was solubilized in DMSO and added to Melan-a cells that were freshly seeded at a density of 5×10^4 cells on a 24 well plate. The cytosolic pH of the Melan-a melanocytes in this assay is about 5-7. Each dose of the chrysanthemum extract was added to the cells in triplicate. The final concentration of DMSO in the culture medium was maintained at 0.25%. Forty eight hours following the first set of treatment, the cells were again treated with the chrysanthemum extract and supplemented with fresh medium. Two days later, melanin was extracted and quantified by normalizing with protein content, following the method described by Komatsu et al. (J. Cosmet. Sci; 64, 455-453 (2013); Rana J. et al., Pigment Cell Res., 18:447 (2005)). Inhibitory activity of samples was reported as % reduction in melanin production compared to 100% untreated control (UT). Phenylthiourea (PTU), a well-known tyrosinase inhibitor was used as positive inhibitor control in the assay. FIG. 3 plots the results.
structure (smiles),measurement,value
O=c1cc(-c2ccc(O)c(O)c2)oc2cc(O[C@@H]3OC(CO)[C@@H](O)C(O)C3O)cc(O)c12 (stereo partly shown) [luteolin-7 glucoside],reduction in melanin production,dose-dependent inhibition
